Measured values reported in US20210317092A1 (BAYER PHARMA AKTIENGESELLSCHAFT, priority 2016, published 2021).
Where two headings read alike, the source gives them in different places.

Columns and labels:
[1] = target: T1, human Bradykinin B1 receptor (Homo sapiens, UniProt P46663); assay: Calcium flux Assay (FLIPR) with recombinant CHO-K1 cells expressing human Bradykinin B1 receptor, in presence (hB1 IC50) or absence (hB1 free IC50) of 0.1% BSA; type: cell-based
T1 construct: host or cells: CHO-K1
T1 sequence (P46663 1-353): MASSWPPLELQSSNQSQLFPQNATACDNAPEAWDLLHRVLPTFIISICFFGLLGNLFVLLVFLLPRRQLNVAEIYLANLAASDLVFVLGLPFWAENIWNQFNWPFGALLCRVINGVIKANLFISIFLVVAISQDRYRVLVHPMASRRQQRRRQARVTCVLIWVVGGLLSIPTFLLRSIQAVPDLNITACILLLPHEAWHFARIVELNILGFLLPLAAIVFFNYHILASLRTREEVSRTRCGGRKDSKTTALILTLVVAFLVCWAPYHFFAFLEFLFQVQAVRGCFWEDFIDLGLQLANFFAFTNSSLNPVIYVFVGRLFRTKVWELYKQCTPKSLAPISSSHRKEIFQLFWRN

[2] = target: T2, native human Bradykinin B1 receptor (Homo sapiens, UniProt P46663); assay: Calcium flux Assay (FLIPR) with human fibroblasts expressing Bradykinin B1 receptor (hB1 IMR-90); type: cell-based; details: IMR-90 human fibroblasts expressing native Bradykinin B1 receptor
T2 construct: which express native human Bradykinin B1 receptor after induction with human IL-10; Coriell Institute; host or cells: IMR-90 human foetal lung fibroblasts, cytokine-induced
T2 sequence (P46663 1-353): T1 sequence (P46663 1-353)
Procedure, shortened: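 IMR-90 human foetal lung fibroblasts induced with 0.35 ng/mL […] for 3 h, Fluo-4/AM-loaded, preincubated with compound (8 concentrations, triplicate) for 30 min at 28 °C, then challenged with Lys-(Des-Arg)-bradykinin at EC90. Ca2+ fluorescence was read at 538 nm; full inhibition set by 20 µM Lys-(Des-Arg-Leu)-bradykinin; IC50 derived.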

[3] = in absence of 0.1% BSA, read-out: hB1 free IC50
[4] = in presence of 0.1% BSA, read-out: hB1 IC50

| IC50 [1, 3] [nM] | IC50 [1, 4] [nM] | IC50 [2] [nM] | SMILES |
| --- | --- | --- | --- |
| 189 | 250 | 340 | CO[C@H]1CC[C@H](c2ccc(NC(=O)C3(c4cccc(Cl)c4)CC3)cc2-c2nnn[nH]2)CC1 [Example 190, 1-(3-chlorophenyl)-N-[4-(trans-4-methoxy-cyclohexyl)-3-(1H-tetrazol-5-yl)phenyl] cyclopropane-carboxamide] |
| 11.8 | – | 20.5 | O=C(Nc1ccc(-c2ccc(C(F)(F)F)nc2)c(-c2nnn[nH]2)c1)C1(c2ccc(C(F)(F)F)cc2F)CC1 [Example 191, 1-[2-fluoro-4-(trifluoromethyl)phenyl]-N-{3-(1H-tetrazol-5-yl)-4-[6-(trifluoromethyl)pyridin-3-yl]phenyl} cyclopropane-carboxamide] |
| 33.9 | – | 29.1 | O=C(Nc1ccc(-c2ccc(C(F)(F)F)nc2)c(-c2nnn[nH]2)c1)C1(c2ccc(Cl)cc2F)CC1 [Example 192, 1-(4-chloro-2-fluorophenyl)-N-{3-(1H-tetrazol-5-yl)-4-[6-(trifluoromethyl)pyridin-3-yl]phenyl} cyclopropane-carboxamide] |
| 95.3 | – | 80.6 | O=C(Nc1ccc(-c2ccc(C(F)(F)F)nc2)c(-c2nnn[nH]2)c1)C1(c2ccc(F)c(F)c2)CC1 [Example 193, 1-(3,4-difluorophenyl)-N-{3-(1H-tetrazol-5-yl)-4-[6-(trifluoromethyl)pyridin-3-yl]phenyl} cyclopropane-carboxamide] |
| 759 | 1370 | 1450 | O=C(Nc1ccc(-c2cnc(C(F)(F)F)nc2)c(-c2nnn[nH]2)c1)C1(c2cccc(Cl)c2)CC1 [Example 196, 1-(3-chlorophenyl)-N-{3-(1H-tetrazol-5-yl)-4-[2-(trifluoromethyl)pyrimidin-5-yl]phenyl} cyclopropane-carboxamide] |
| 83.2 | – | 50.9 | CC(F)(F)c1ccc(-c2ccc(NC(=O)C3(c4cccc(Cl)c4)CC3)cc2-c2nnn[nH]2)cn1 [Example 202, 1-(3-chlorophenyl)-N-{4-[6-(1,1-difluoroethyl)pyridin-3-yl]-3-(1H-tetrazol-5-yl)phenyl} cyclopropane-carboxamide] |
| 92.2 | – | 36.7 | O=C(Nc1ccc(-c2ccc(C(F)(F)F)nc2)c(-c2nnn[nH]2)c1)C1(c2ccc(Cl)cc2)CC1 [Example 203, 1-(4-chlorophenyl)-N-{3-(1H-tetrazol-5-yl)-4-[6-(trifluoromethyl)pyridin-3-yl]phenyl} cyclopropane-carboxamide] |
| 22.4 | – | 14.9 | O=C(Nc1ccc(-c2ccc(C(F)F)nc2)c(-c2nnn[nH]2)c1)C1(c2ccc(F)c(F)c2)CC1 [Example 207, N-{4-[6-(difluoromethyl)pyridin-3-yl]-3-(1H-tetrazol-5-yl)phenyl}-1-(3,4-difluorophenyl) cyclopropane-carboxamide] |
| 22.6 | 15.8 | 11.2 | Cc1ccc(-c2ccc(NC(=O)C3(c4cccc(Cl)c4)CC3)cc2-c2nnn[nH]2)cn1 [Example 208, 1(3-chlorophenyl)-N-[4-(6-methylpyridin-3-yl)-3-(1H-tetrazol-5-yl)phenyl] cyclopropane-carboxamide] |
| 2.96 | – | 3.05 | Cc1ccc(-c2ccc(NC(=O)C3(c4ccc(C(F)(F)F)cc4F)CC3)cc2-c2nnn[nH]2)cn1 [Example 209, 1-[2-fluoro-4-(trifluoromethyl)phenyl]-N-[4-(6-methylpyridin-3-yl)-3-(1H-tetrazol-5-yl)phenyl] cyclopropane-carboxamide] |
| 10.5 | 23.1 | 19.1 | Cc1cc(-c2ccc(NC(=O)C3(c4cccc(Cl)c4F)CC3)cc2-c2nnn[nH]2)ccn1 [Example 211, 1-(3-chloro-2-fluorophenyl)-N-[4-(2-methylpyridin-4-yl)-3-(1H-tetrazol-5-yl)phenyl] cyclopropane-carboxamide] |
| 2.77 | – | 3.92 | Cc1cc(-c2ccc(NC(=O)C3(c4ccc(C(F)(F)F)cc4F)CC3)cc2-c2nnn[nH]2)ccn1 [Example 212, 1-[2-fluoro-4-(trifluoromethyl)phenyl]-N-[4-(2-methylpyridin-4-yl)-3-(1H-tetrazol-5-yl)phenyl] cyclopropane carboxamide] |
| 18 | 63.2 | 24.7 | Cn1ncc2ccc(-c3ccc(NC(=O)C4(c5cccc(Cl)c5)CC4)cc3-c3nnn[nH]3)cc21 [Example 213, 1-(3-chlorophenyl)-N-[4-(1-methyl-1H-indazol-6-yl)-3-(1H-tetrazol-5-yl)phenyl] cyclopropane-carboxamide] |
| 7.93 | 47.2 | 26.9 | Cn1ncc2ccc(-c3ccc(NC(=O)C4(c5cccc(Cl)c5F)CC4)cc3-c3nnn[nH]3)cc21 [Example 214, 1-(3-chloro-2-fluorophenyl)-N-[4-(1-methyl-1H-indazol-6-yl)-3-(1H-tetrazol-5-yl)phenyl] cyclopropane carboxamide] |
| 3.21 | – | 8.48 | Cn1ncc2ccc(-c3ccc(NC(=O)C4(c5ccc(C(F)(F)F)cc5F)CC4)cc3-c3nnn[nH]3)cc21 [Example 215, 1-[2-fluoro-4-(trifluoromethyl)phenyl]-N-[4-(1-methyl-1H-indazol-6-yl)-3-(1H-tetrazol-5-yl)phenyl] cyclopropane-carboxamide] |
| 40.6 | – | 38.8 | CCn1cc(-c2ccc(NC(=O)C3(c4cccc(Cl)c4)CC3)cc2-c2nnn[nH]2)cn1 [Example 216, 1-(3-chlorophenyl)-N-[4-(1-ethyl-1H-pyrazol-4-yl)-3-(1H-tetrazol-5-yl)phenyl] cyclopropane-carboxamide] |
| 264 | 75 | 31.6 | CCOc1ccc(-c2ncc(NC(=O)C3(c4cccc(Cl)c4)CC3)cc2-c2nnn[nH]2)cn1 [Example 218, 1-(3-chlorophenyl)-N-[6′-ethoxy-3-(1H-tetrazol-5-yl)-2,3′-bipyridin-5-yl]cyclopropane carboxamide] |
| 27.4 | 49.8 | 23.1 | O=C(Nc1cc(-c2nnn[nH]2)c(-c2ccc(C(F)(F)F)nc2)cc1O)C1(c2ccc(F)c(Cl)c2)CC1 [Example 220, 1-(3-chloro-4-fluorophenyl)-N-{2-hydroxy-5-(1H-tetrazol-5-yl)-4-[6-(trifluoromethyl)pyridin-3-yl]phenyl} cyclopropane-carboxamide] |
| – | 75.7 | 55.6 | O=C(Nc1cc(-c2nnn[nH]2)c(-c2ccc(C(F)(F)F)nc2)cc1O)C1(c2cc(Cl)ccc2F)CC1 [Example 222] |
| – | 49.6 | 108 | O=C(Nc1cc(-c2nnn[nH]2)c(-c2ccc(C(F)(F)F)nc2)cc1O)C1(c2ccc(Cl)c(F)c2)CC1 [Example 224, 1-(4-chloro-3-fluorophenyl)-N-{2-hydroxy-5-(1H-tetrazol-5-yl)-4-[6-(trifluoromethyl)pyridin-3-yl]phenyl} cyclopropane-carboxamide] |
| – | 83.8 | 177 | CCOc1ccc(-c2cc(O)c(NC(=O)C3(c4ccc(Cl)cc4)CC3)cc2-c2nnn[nH]2)cn1 [Example 227, 1-(4-chlorophenyl)-N-[4-(6-ethoxypyridin-3-yl)-2-hydroxy-5-(1H-tetrazol-5-yl)phenyl] cyclopropane-carboxamide] |
| 8.26 | 18.6 | 6.8 | COc1ccc(-c2c(F)cc(NC(=O)C3(c4ccc(C(F)(F)F)cc4)CC3)cc2-c2nnn[nH]2)cc1OC [Example 232, N-[2-Fluoro-3′,4′-dimethoxy-6-(1H-tetrazol-5-yl)biphenyl-4-yl]-1-[4-(trifluoromethyl)phenyl] cyclopropane-carboxamide] |
| 18.9 | 68.6 | 35.2 | COc1cc(-c2ccc(NC(=O)C3(c4cccc(Cl)c4)CC3)cc2-c2nnn[nH]2)ccc1C(F)(F)F [Example 233, 1-(3-chlorophenyl)-N-[3′-methoxy-2-(1H-tetrazol-5-yl)-4′-(trifluoromethyl)biphenyl-4-yl]cyclopropane carboxamide] |
| 11 | 29.9 | 18.6 | COc1ccc(-c2c(F)cc(NC(=O)C3(c4cccc(Cl)c4)CC3)cc2-c2nnn[nH]2)cc1OC [Example 234, 1-(3-Chlorophenyl)-N-[2-fluoro-3′,4′-dimethoxy-6-(1H-tetrazol-5-yl)biphenyl-4-yl]cyclopropane carboxamide] |
| 2.9 | – | 15.6 | CCOc1ccc(-c2c(F)cc(NC(=O)C3(c4cccc(Cl)c4)CC3)cc2-c2nnn[nH]2)cn1 [Example 236, 1-(3-chlorophenyl)-N-[4-(6-ethoxypyridin-3-yl)-3-fluoro-5-(1H-tetrazol-5-yl)phenyl] cyclopropane-carboxamide] |
| 2.35 | – | 2.83 | CCOc1ccc(-c2c(F)cc(NC(=O)C3(c4ccc(C(F)(F)F)cc4F)CC3)cc2-c2nnn[nH]2)cn1 [Example 240, N-[4-(6-ethoxypyridin-3-yl)-3-fluoro-5-(1H-tetrazol-5-yl)phenyl]-1-[2-fluoro-4-(trifluoromethyl)phenyl] cyclopropane-carboxamide] |
